Laboratory results: patent US11795165B2, “Tetrahydro-benzoazepine glycosidase inhibitors” (Asceneuron SA, priority 2018, dated 2023)

These compounds were tested against His-Tagged hOGA (human O-GlcNAcase) (Homo sapiens (Human), UniProt O60502) (assay: Human O-GlcNAcase enzyme inhibition assay (OGA enzyme inhibition assay)). Conditions: His-Tagged hOGA 20 nM, FL-GlcNAc 10 μM, 60 min at room temperature, pH 6.5; activity classes.
Type: biochemical
Description: Example B01: Human O-GlcNAcase Enzyme Inhibition Assay
5 μl of the appropriate concentration of a solution of inhibitor in McIlvaine's Buffer (pH 6.5) in 2% DMSO (for a dose response curve calculation) is added into each well of a 384-well plate (Greiner, 781900). Then, 20 nM of His-Tagged hOGA and 10 μM of FL-GlcNAc (Fluorescein mono-beta-D-(2-deoxy-2-N-acetyl) glucopyranoside; Marker Gene Technologies Inc, M1485) were added to the 384-well plate for a final volume of 20 μl. After incubation for 60 min at room temperature, the reaction was terminated by the addition of 10 μL of stop buffer (200 mM glycine, pH 10.75). The level of fluorescence (Δexc 485 nm; (Δemm 520 nm) was read on a PHERAstar machine. The amount of fluorescence measured was plotted against the concentration of inhibitor to produce a sigmoidal dose response curve to calculate an IC50. All individual data was corrected by subtraction of the background (Thiamet 3 uM=100% inhibition) whilst 0.5% DMSO was considered as the control value (no inhibition).

Sequence of His-Tagged hOGA (human O-GlcNAcase) (O60502 whole entry): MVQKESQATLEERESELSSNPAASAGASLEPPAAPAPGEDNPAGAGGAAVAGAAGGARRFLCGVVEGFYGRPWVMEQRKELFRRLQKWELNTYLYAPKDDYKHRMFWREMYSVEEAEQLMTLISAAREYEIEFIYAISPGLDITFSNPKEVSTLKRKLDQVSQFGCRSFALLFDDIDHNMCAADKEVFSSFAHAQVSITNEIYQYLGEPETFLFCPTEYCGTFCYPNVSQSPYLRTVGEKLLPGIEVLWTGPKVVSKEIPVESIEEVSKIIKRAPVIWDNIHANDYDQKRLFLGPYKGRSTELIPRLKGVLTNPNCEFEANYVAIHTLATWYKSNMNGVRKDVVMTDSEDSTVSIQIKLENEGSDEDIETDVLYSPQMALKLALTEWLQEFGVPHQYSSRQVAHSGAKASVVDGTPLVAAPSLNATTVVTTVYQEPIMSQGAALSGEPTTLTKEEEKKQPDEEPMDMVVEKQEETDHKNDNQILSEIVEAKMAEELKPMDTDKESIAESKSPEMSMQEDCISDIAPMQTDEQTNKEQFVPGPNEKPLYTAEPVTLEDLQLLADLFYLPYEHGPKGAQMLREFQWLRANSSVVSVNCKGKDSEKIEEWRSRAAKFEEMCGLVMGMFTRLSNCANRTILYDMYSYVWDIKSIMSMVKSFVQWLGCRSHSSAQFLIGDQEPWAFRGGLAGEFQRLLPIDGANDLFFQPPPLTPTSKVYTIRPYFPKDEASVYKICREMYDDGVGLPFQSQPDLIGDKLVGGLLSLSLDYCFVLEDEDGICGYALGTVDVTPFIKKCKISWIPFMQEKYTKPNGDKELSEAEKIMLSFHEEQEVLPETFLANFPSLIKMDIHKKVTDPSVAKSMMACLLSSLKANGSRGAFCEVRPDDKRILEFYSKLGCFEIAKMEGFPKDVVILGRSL

| Compound | IC50 [nM] |
| --- | --- |
| 5-(1-(7-methoxy-2-methyl-1,2,4,5-tetrahydro-3H-benzo[d]azepin-3-yl)ethyl)benzo[d]thiazole [Example 19] | 50 to 200 |
| COc1ccc2c(c1Cl)CCN(C(C)c1ccc3scnc3c1)CC2 (racemic) [Example 10, 5-(1-(6-chloro-7-methoxy-1,2,4,5-tetrahydro-3H-benzo[d]azepin-3-yl)ethyl)benzo[d]thiazole] | 50 to 200 |
| COc1ccc2c(c1)CCN(C(C)c1ccc3nccnc3c1)CC2 (racemic) [Example 12, 7-methoxy-3-(1-(quinoxalin-6-yl)ethyl)-2,3,4,5-tetrahydro-1H-benzo[d]azepine] | < 50 |
| CC(c1ccc2scnc2c1)N1CCCc2cc(Br)ccc2C1 (racemic) [Example 13, 5-(1-(7-bromo-1,3,4,5-tetrahydro-2H-benzo[c]azepin-2-yl)ethyl)benzo[d]thiazole] | 200 to 1000 |
| CC(c1ccc2scnc2c1)N1CCCc2cc(C#N)ccc2C1 (racemic) [Example 15, 2-(1-(benzo[d]thiazol-5-yl)ethyl)-2,3,4,5-tetrahydro-1H-benzo[c]azepine-7-carbonitrile] | 200 to 1000 |
| CC(c1ccc2scnc2c1)N1CCCc2cc(S(C)(=O)=O)ccc2C1 (racemic) [Example 17, 5-(1-(7-(methylsulfonyl)-1,3,4,5-tetrahydro-2H-benzo[c]azepin-2-yl)ethyl)benzo[d]thiazole] | 200 to 1000 |
| CC(c1ccc2scnc2c1)N1CCc2ccc(Oc3cccc(F)n3)cc2CC1 (racemic) [Example 23, 5-(1-(7-((6-fluoropyridin-2-yl)oxy)-1,2,4,5-tetrahydro-3H-benzo[d]azepin-3-yl)ethyl)benzo[d]thiazole] | < 50 |
| CC(c1ccc2scnc2c1)N1CCc2ccc(OC(F)F)cc2CC1 (racemic) [Example 24, 5-(1-(7-(difluoromethoxy)-1,2,4,5-tetrahydro-3H-benzo[d]azepin-3-yl)ethyl)benzo[d]thiazole] | < 50 |
| CC(C)Oc1ccc2c(c1)CCN(C(C)c1ccc3scnc3c1)CC2 (racemic) [Example 25, 5-(1-(7-isopropoxy-1,2,4,5-tetrahydro-3H-benzo[d]azepin-3-yl)ethyl)benzo[d]thiazole] | 50 to 200 |
| CC(C)COc1ccc2c(c1)CCN(C(C)c1ccc3scnc3c1)CC2 (racemic) [Example 26, 5-(1-(7-isobutoxy-1,2,4,5-tetrahydro-3H-benzo[d]azepin-3-yl)ethyl)benzo[d]thiazole] | 200 to 1000 |
| COc1ccc2c(c1)CCN(Cc1ccc3nsnc3c1)C(C)C2 (racemic) [Example 28, 5-((7-methoxy-2-methyl-1,2,4,5-tetrahydro-3H-benzo[d]azepin-3-yl)methyl)benzo[c][1,2,5]thiadiazole] | 1000 to 10000 |

Second part, the compound after the results:

| IC50 [nM] | Compound |
| --- | --- |
| < 50 | COc1cc2c(cc1Cl)CCN(C(C)c1ccc3scnc3c1)CC2 (racemic) [Example 11, 5-(1-(7-chloro-8-methoxy-1,2,4,5-tetrahydro-3H-benzo[d]azepin-3-yl)ethyl)benzo[d]thiazole] |
| < 50 | CC(c1ccc2scnc2c1)N1CCc2ccc(Br)cc2CC1 (racemic) [Example 14, 5-(1-(7-bromo-1,2,4,5-tetrahydro-3H-benzo[d]azepin-3-yl)ethyl)benzo[d]thiazole] |
| < 50 | CC(c1ccc2scnc2c1)N1CCc2ccc(C#N)cc2CC1 (racemic) [Example 16, 3-(1-(benzo[d]thiazol-5-yl)ethyl)-2,3,4,5-tetrahydro-1H-benzo[d]azepine-7-carbonitrile] |
| < 50 | CC(c1ccc2scnc2c1)N1CCc2ccc(S(C)(=O)=O)cc2CC1 (racemic) [Example 18, 5-(1-(7-(methylsulfonyl)-1,2,4,5-tetrahydro-3H-benzo[d]azepin-3-yl)ethyl)benzo[d]thiazole] |
| < 50 | CC(c1ccc2scnc2c1)N1CCc2ccccc2CC1 (racemic) [Example 20, 5-(1-(1,2,4,5-tetrahydro-3H-benzo[d]azepin-3-yl)ethyl)benzo[d]thiazole] |
